This is an account of results in US20260109708A1, “COMPOUNDS AND COMPOSITIONS USEFUL AS DEGRADERS OF MK2 KINASE” (Celgene Corporation, priority 2023, published 2026).

SMILES strings stand for the structures.

By IC50 is commonly meant the concentration that gives 50% inhibition.

This test deals with T1, p38a activated, mitogen-activated protein kinase-activated protein kinase 2 (MAPKAP-K2 or MK2) enzyme (Homo sapiens, UniProt P49137).
T1 construct: purchased Invitrogen PV3317
T1 sequence (P49137 whole entry): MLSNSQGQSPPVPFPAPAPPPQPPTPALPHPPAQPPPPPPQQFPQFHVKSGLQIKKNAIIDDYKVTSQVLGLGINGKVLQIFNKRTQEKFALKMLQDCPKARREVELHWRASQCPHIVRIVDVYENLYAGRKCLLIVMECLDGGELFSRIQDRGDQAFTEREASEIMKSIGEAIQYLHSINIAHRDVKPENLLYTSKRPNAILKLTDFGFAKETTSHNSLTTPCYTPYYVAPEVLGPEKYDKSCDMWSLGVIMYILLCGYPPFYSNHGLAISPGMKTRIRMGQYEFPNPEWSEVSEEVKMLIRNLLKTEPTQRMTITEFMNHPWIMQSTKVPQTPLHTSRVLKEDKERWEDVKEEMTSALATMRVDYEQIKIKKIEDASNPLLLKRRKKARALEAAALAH
Description: MK2 OMNIA biochemical assay (AssayQuant continuous-read kinase assay). Particulars: [MK-2]=0.05 nM, [ATP]=100 μM, [AQT0425]=10 μM. The source says:
Example 56.2. Mitogen-Activated Protein Kinase-Activated Protein Kinase 2 AssayQuant Technologies® Assay for Compound Potency Assessment (MK2 OMNIA Biochemical Assay)
The protocol below describes a continuous-read kinase assay optimized to measure potency of compounds against p38a activated, mitogen-activated protein kinase-activated protein kinase 2 (MAPKAP-K2 or MK2) enzyme.
A 1.25× stock solution of MK2 (PV3317, from Invitrogen) and a 5× stock solution of ATP and Sox conjugated peptide substrate, AQT0425 (CSKS-AQT0425B, from AssayQuant Technologies), were prepared in 1× kinase reaction buffer consisting of 50 mM HEPES, pH 7.5, 0.01% Brij-35, 0.55 mM EGTA, 10 mM MgCl2 and 1 mM DTT.
10 μL of the ATP and substrate solution mix was added to a Coming (3574) 384-well, white, non-binding surface microtiter plate containing 0.5 μL of serially diluted test compounds prepared in DMSO. The reactions were started with the addition of 40 μL of the enzyme solution and monitored every 71 seconds for 240 min at kex 360/λem 485 in a Synergy H4 plate reader from BioTek at room temperature.
The initial linear portions of the net progress curves were fit according to a linear equation to yield the slope and percentage of inhibition (% inhibition) at each compound concentration. The net progress curves obtained during the entirety of reactions were also fit according to an ascending single-exponential equation (Eq. 1) to yield Vobs values at each compound concentration. Plots of % Inhibition versus degrader concentrations were fit according to a dose-response equation (Eq. 2) to generate IC50 and Hill slope values while plots of Vobs versus degrader concentration were fit according to Equation 3 (Eq. 3) to generate apparent Kinact values using the GraphPad PRISM software.
where F is the fluorescence intensity from the plate reader, V0 is a constant reflecting the relationship between the instrument readout and product concentration, t is time, e is Euler's number, and Vobs is the observed inactivation rate constant.
where % Inhibition is percentage of inhibition, IC50 is half maximal inhibitory concentration, [I] is the degraders concentration, and n is the Hill slope.
where kobs is the observed inactivation rate constant, Kinact is the apparent inactivation rate constant, K1 is the apparent inhibition constant, and [I] is the degrader concentration.
Turning to `C[C@@H]1COc2c(sc3ccc4nc(-c5ccc(N6CCN(CCN7CCN(c8ccc(C9CCC(=O)NC9=O)cc8)CC7)CC6)cc5)ccc4c23)C(=O)N1` (stereo partly drawn) [Ex 25, 3-(4-(4-(2-(4-(4-((R)-10-Methyl-8-oxo-8,9,10,11-tetrahydro-[1,4]oxazepino[7′,6′:4,5]thieno[3,2-f]quinolin-3-yl)phenyl)piperazin-1-yl)ethyl)piperazin-1-yl)phenyl)piperidine-2,6-dione], the IC50 was 151 to 500 nM.
Take `C[C@@H]1CNc2c(sc3ccc4nc(-n5cc(C6CN(CCN7CCC(c8ccc(C9CCC(=O)NC9=O)cc8)CC7)C6)nn5)ccc4c23)C(=O)N1` (stereo partly drawn) [Ex 54, 3-(4-(1-(2-(3-(1-((R)-10-Methyl-8-oxo-9,10,11,12-tetrahydro-8H-[1,4]diazepino[5′,6′:4,5]thieno[3,2-f]quinolin-3-yl)-1H-1,2,3-triazol-4-yl)azetidin-1-yl)ethyl)piperidin-4-yl)phenyl)piperidine-2,6-dione]: the IC50 is below 150 nM.
Then `C[C@@H]1CNc2c(sc3ccc4nc(-c5ccc(N6CCN(C(=O)C(=O)N7CCN(c8ccc(C9CCC(=O)NC9=O)cc8)CC7)CC6)cc5)ccc4c23)C(=O)N1` (stereo partly drawn) [Ex 23, 3-(4-(4-(2-(4-(4-((R)-10-Methyl-8-oxo-9,10,11,12-tetrahydro-8H-[1,4]diazepino[5′,6′:4,5]thieno[3,2-f]quinolin-3-yl)phenyl)piperazin-1-yl)-2-oxoacetyl)piperazin-1-yl)phenyl)piperidine-2,6-dione], with below 150 nM; and `C[C@@H]1CNc2c(sc3ccc4nc(-c5cnn(C6CN(CCN7CCN(c8ccc9c(C%10CCC(=O)NC%10=O)nn(C)c9c8)CC7)C6)c5)ccc4c23)C(=O)N1` (stereo partly drawn) [Ex 52, 3-(1-Methyl-6-(4-(2-(3-(4-((R)-10-methyl-8-oxo-9,10,11,12-tetrahydro-8H-[1,4]diazepino[5′,6′:4,5]thieno[3,2-f]quinolin-3-yl)-1H-pyrazol-1-yl)azetidin-1-yl)ethyl)piperazin-1-yl)-1H-indazol-3-yl)piperidine-2,6-dione], with below 150 nM.
Regarding `C[C@@H]1CNc2c(sc3ccc4nc(-c5ccc(C6CCN(CCN7CCN(c8ccc(C9CCC(=O)NC9=O)cc8)CC7)CC6)nn5)ccc4c23)C(=O)N1` (stereo partly drawn) [Ex 37, 3-(4-(4-(2-(4-(6-((R)-10-Methyl-8-oxo-9,10,11,12-tetrahydro-8H-[1,4]diazepino[5′,6′:4,5]thieno[3,2-f]quinolin-3-yl)pyridazin-3-yl)piperidin-1-yl)ethyl)piperazin-1-yl)phenyl)piperidine-2,6-dione], the concentration for half-maximal inhibition (IC50) was below 150 nM.
For `C[C@@H]1CNc2c(sc3ccc4nc(-c5ccc(N6CC(CN7CCN(c8ccc(C9CCC(=O)NC9=O)cc8)CC7)C6)cc5)ccc4c23)C(=O)N1` (stereo partly drawn) [Ex 41, 3-(4-(4-((1-(4-((R)-10-Methyl-8-oxo-9,10,11,12-tetrahydro-8H-[1,4]diazepino[5′,6′:4,5]thieno[3,2-f]quinolin-3-yl)phenyl)azetidin-3-yl)methyl)piperazin-1-yl)phenyl)piperidine-2,6-dione] the value was below 150 nM; for `C[C@@H]1CNc2c(sc3ccc4nc(-c5cnc(C6CCN(CCN7CCN(c8ccc(C9CCC(=O)NC9=O)cc8)CC7)CC6)nc5)ccc4c23)C(=O)N1` (stereo partly drawn) [Ex 36, 3-(4-(4-(2-(4-(5-((R)-10-Methyl-8-oxo-9,10,11,12-tetrahydro-8H-[1,4]diazepino[5′,6′:4,5]thieno[3,2-f]quinolin-3-yl)pyrimidin-2-yl)piperidin-1-yl)ethyl)piperazin-1-yl)phenyl)piperidine-2,6-dione], 151 to 500 nM; for `C[C@@H]1CNc2c(sc3ccc4nc(-c5ccc(N6CCN(CCN7CCN(c8ccc(C9CCC(=O)NC9=O)cc8)CC7)CC6)cc5)ccc4c23)C(=O)N1` (stereo partly drawn) [Ex 22, 3-(4-(4-(2-(4-(4-((R)-10-Methyl-8-oxo-9,10,11,12-tetrahydro-8H-[1,4]diazepino[5′,6′:4,5]thieno[3,2-f]quinolin-3-yl)phenyl)piperazin-1-yl)ethyl)piperazin-1-yl)phenyl)piperidine-2,6-dione], 151 to 500 nM.
For `C[C@@H]1CNc2c(sc3ccc4nc(-c5ccc(C(=O)N[C@H]6CC[C@H](CCN7CCN(c8ccc9c(C%10CCC(=O)NC%10=O)nn(C)c9c8)CC7)CC6)cc5F)ccc4c23)C(=O)N1` (stereo partly drawn) [Ex 6, N-(trans-4-(2-(4-(3-(2,6-Dioxopiperidin-3-yl)-1-methyl-1H-indazol-6-yl)piperazin-1-yl)ethyl)cyclohexyl)-3-fluoro-4-((R)-10-methyl-8-oxo-9,10,11,12-tetrahydro-8H-[1,4]diazepino[5′,6′:4,5]thieno[3,2-f]quinolin-3-yl)benzamide] the value was below 150 nM; for `C[C@@H]1CNc2c(sc3ccc4nc(-c5cccc(N6CCN(CCN7CCN(c8ccc(C9CCC(=O)NC9=O)cc8)CC7)CC6)c5)ccc4c23)C(=O)N1` (stereo partly drawn) [Ex 11, 3-(4-(4-(2-(4-(3-((R)-10-Methyl-8-oxo-9,10,11,12-tetrahydro-8H-[1,4]diazepino[5′,6′:4,5]thieno[3,2-f]quinolin-3-yl)phenyl)piperazin-1-yl)ethyl)piperazin-1-yl)phenyl)piperidine-2,6-dione], below 150 nM.
For `C[C@@H]1CNc2c(sc3ccc4nc(-c5cccc(C6CCN(CCN7CCN(c8ccc(C9CCC(=O)NC9=O)cc8)CC7)CC6)c5)ccc4c23)C(=O)N1` (stereo partly drawn) [Ex 18, 3-(4-(4-(2-(4-(3-((R)-10-Methyl-8-oxo-9,10,11,12-tetrahydro-8H-[1,4]diazepino[5′,6′:4,5]thieno[3,2-f]quinolin-3-yl)phenyl)piperidin-1-yl)ethyl)piperazin-1-yl)phenyl)piperidine-2,6-dione] the value was below 150 nM; for `C[C@@H]1CNc2c(sc3ccc4nc(-n5cc(C6CCN(CCN7CCN(c8ccc(C9CCC(=O)NC9=O)cc8)CC7)CC6)nn5)ccc4c23)C(=O)N1` (stereo partly drawn) [Ex 45, 3-(4-(4-(2-(4-(1-((R)-10-Methyl-8-oxo-9,10,11,12-tetrahydro-8H-[1,4]diazepino[5′,6′:4,5]thieno[3,2-f]quinolin-3-yl)-1H-1,2,3-triazol-4-yl)piperidin-1-yl)ethyl)piperazin-1-yl)phenyl)piperidine-2,6-dione], below 150 nM; for `C[C@@H]1CNc2c(sc3ccc4nc(-c5ccc(C6CCN(CCN7CCC(c8ccc(C9CCC(=O)NC9=O)cc8)CC7)CC6)cc5)ccc4c23)C(=O)N1` (stereo partly drawn) [Ex 29, 3-(4-(1-(2-(4-(4-((R)-10-Methyl-8-oxo-9,10,11,12-tetrahydro-8H-[1,4]diazepino[5′,6′:4,5]thieno[3,2-f]quinolin-3-yl)phenyl)piperidin-1-yl)ethyl)piperidin-4-yl)phenyl)piperidine-2,6-dione], below 150 nM.
For `C[C@@H]1CNc2c(sc3ccc4nc(-c5ccc(C(=O)N[C@H]6C[C@H](CN7CCN(c8ccc9c(C%10CCC(=O)NC%10=O)nn(C)c9c8)CC7)C6)cc5F)ccc4c23)C(=O)N1` (stereo partly drawn) [Ex 3, N-((trans)-3-((4-(3-(2,6-Dioxopiperidin-3-yl)-1-methyl-1H-indazol-6-yl)piperazin-1-yl)methyl)cyclobutyl)-3-fluoro-4-((R)-10-methyl-8-oxo-9,10,11,12-tetrahydro-8H-[1,4]diazepino[5′,6′:4,5]thieno[3,2-f]quinolin-3-yl)benzamide], the IC50 is below 150 nM.
